Results as given in article PMC7645366 (EMBO Molecular Medicine, 2020).
Values joined by “and” are separate entries in the source; they are usually repeats but may differ in a detail not shown here. Equal values may be shown once. Read-outs that look alike come from different tables or passages of the source.

Assays:
SLO = SLO (Streptococcus pyogenes serotype M1, UniProt P0C0I3); assay type: cell-based; details: 100uM; 18 h
PLY [1] = target: T1, PLY (Streptococcus pneumoniae serotype 4, UniProt P0C2J9); assay type: cell-based
T1 sequence (P0C2J9 whole entry, looked up): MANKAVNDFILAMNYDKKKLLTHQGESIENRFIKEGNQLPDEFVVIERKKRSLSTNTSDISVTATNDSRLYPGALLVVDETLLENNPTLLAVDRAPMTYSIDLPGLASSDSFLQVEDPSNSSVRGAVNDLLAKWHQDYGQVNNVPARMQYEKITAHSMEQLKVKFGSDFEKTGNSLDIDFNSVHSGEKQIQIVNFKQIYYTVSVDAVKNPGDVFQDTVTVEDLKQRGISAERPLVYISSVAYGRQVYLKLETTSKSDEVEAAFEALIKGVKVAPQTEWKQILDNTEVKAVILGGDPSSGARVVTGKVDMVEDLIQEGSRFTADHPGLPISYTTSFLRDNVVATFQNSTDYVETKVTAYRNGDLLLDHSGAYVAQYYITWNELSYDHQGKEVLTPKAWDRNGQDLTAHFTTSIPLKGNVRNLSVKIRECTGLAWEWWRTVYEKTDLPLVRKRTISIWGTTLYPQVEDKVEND

LLO [2] = target: T2, LLO (Listeria monocytogenes serovar 1/2a, UniProt P13128); assay: LDH cytotoxicity assay, THP-1 macrophages, LLO; assay type: cell-based; details: THP-1, LLO 0.5 μg/ml, 100 μM, 18 h
T2 sequence (P13128 25-529): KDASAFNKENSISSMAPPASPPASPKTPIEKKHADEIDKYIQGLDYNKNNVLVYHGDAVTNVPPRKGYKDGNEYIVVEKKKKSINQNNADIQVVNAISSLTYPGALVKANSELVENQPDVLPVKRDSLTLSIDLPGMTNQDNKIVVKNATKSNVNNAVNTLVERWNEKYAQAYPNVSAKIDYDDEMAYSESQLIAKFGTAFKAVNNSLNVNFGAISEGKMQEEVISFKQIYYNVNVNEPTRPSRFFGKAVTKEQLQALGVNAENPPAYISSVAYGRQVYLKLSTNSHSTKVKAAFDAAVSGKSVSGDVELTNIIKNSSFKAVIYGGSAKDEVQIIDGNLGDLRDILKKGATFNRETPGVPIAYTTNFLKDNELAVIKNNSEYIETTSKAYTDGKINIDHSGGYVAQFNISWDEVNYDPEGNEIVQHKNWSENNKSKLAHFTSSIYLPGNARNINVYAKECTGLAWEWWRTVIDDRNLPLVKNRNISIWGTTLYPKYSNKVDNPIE
Description: (§1) Human monocytic leukemia THP‐1 cells (ATCC TIB‐202) were cultivated in R10 medium and maintained at density of 10^6 cells/ml. For differentiation into macrophages, THP‐1 cells were treated for 48 h with 20 ng/ml of phorbol myristate acetate (Sigma).
Cytotoxicity was determined by measuring the activity of lactate dehydrogenase enzyme released into the culture supernatant using the Cytotoxicity Detection kit (Roche) according to the manufacturer's instructions. The percentage cytotoxicity was calculated by ratio to 100% lysis control (0.1% saponin).

LLO [3] = target: T2, LLO; assay: Cytokine ELISA, THP-1 macrophages stimulated with LLO; assay type: cell-based; details: LLO 0.5 μg/ml, 100uM, 18 h
Description: as §1

PLY [4] = target: T1, PLY; details: 18 h
PLY [5] = target: T1, PLY; assay type: cell-based; details: 100uM; 18 h

Chain of SLO (P0C0I3 34-571 limits assumed): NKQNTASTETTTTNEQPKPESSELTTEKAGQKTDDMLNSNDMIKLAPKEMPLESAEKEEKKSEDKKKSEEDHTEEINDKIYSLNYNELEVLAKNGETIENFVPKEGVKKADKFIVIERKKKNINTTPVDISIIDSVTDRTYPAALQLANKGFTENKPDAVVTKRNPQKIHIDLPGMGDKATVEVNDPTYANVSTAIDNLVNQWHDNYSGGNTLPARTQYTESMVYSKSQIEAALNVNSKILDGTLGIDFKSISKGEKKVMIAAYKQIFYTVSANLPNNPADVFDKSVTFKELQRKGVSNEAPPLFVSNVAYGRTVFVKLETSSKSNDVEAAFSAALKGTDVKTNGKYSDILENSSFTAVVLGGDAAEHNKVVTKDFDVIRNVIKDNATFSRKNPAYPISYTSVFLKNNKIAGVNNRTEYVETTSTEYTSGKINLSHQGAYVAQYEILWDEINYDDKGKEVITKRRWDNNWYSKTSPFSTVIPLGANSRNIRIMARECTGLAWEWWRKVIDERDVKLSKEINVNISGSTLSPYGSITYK

Compound	IL-8 levels in THP-1 macrophages (SLO)	cytolysis by PLY in live imaging (PLY [1])	% cytotoxicity relative to positive control (lysis buffer), LDH (LLO [2]; experiment 1 of 4) [%]	% cytotoxicity relative to positive control (lysis buffer), LDH (LLO [2]; experiment 2 of 4) [%]	% cytotoxicity relative to positive control (lysis buffer), LDH (LLO [2]; experiment 3 of 4) [%]	% cytotoxicity relative to positive control (lysis buffer), LDH (LLO [2]; experiment 4 of 4) [%]	IL-8 levels in THP-1 macrophages (LLO [3]; experiment 1 of 3) [pg/mL]	IL-8 levels in THP-1 macrophages (LLO [3]; experiment 2 of 3) [pg/mL]	IL-8 levels in THP-1 macrophages (LLO [3]; experiment 3 of 3) [pg/mL]	% cytotoxicity relative to positive control (lysis buffer), LDH (PLY [4]; 100 μM)	% cytotoxicity relative to positive control (lysis buffer), LDH (PLY [4]) [%]	IL-8 levels in THP-1 macrophages (PLY [5])
CC(C)CCC[C@@H](C)[C@H]1CC[C@H]2[C@@H]3CC=C4C[C@@H](O)CC[C@]4(C)[C@H]3CC[C@]12C [CHO, Cholesterol, reference compound]	79.6 pg/mL and 72.8 pg/mL and 144.9 pg/mL	protection from PLY induced cytolysis	42.88	43.52	31.62	53.89	112.8	87.2	126.9	27.36% and 42.05% and 42.16%	35.29	104 pg/mL and 72.9 pg/mL and 80.5 pg/mL
Bovine serum albumin [BSA]	–	cytolysis	–	–	–	–	–	–	–	–	–	–
